Assay [1] concerns Leishmania donovani. Put plainly: Leishmania intramacrophage assay. In kind it is functional, organism-based. The conditions noted are these: for IC50: Leishmania donovani.
Assay [2] deals with T1, Histidine--tRNA ligase (Leishmania infantum, UniProt A4I591).
T1 sequence (A4I591 whole entry): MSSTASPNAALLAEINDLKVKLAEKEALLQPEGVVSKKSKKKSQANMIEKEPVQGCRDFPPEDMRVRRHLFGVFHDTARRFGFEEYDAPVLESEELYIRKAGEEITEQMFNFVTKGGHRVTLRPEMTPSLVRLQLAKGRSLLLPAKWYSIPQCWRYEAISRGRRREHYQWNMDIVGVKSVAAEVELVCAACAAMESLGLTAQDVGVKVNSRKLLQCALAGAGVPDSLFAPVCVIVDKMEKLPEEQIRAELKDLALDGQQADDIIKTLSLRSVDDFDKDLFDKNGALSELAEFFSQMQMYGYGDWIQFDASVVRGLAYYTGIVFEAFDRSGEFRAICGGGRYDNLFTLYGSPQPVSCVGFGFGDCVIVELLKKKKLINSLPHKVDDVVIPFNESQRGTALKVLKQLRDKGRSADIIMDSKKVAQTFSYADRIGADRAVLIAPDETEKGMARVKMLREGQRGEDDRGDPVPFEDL
Nature of the assay: Leishmania infantum Histidine tRNA synthetase (LdHisRS). The assay is classed as functional.

The nature of assay [3]: In vitro enzyme assay to detect hydrolysis of chlorophenol red-beta-D-[…] directly proportional to the number of Toxoplasma stably expressing beta-galactosidase. As to conditions: for IC50: Toxoplasma gondii. The assay is classed as functional, organism-based, Toxoplasma gondii.
The test system of assay [4] is Plasmodium falciparum. Put plainly: Calibr Malaria Delayed Death Assay SOP. The conditions noted are these: for IC50: Plasmodium falciparum. The assay is classed as functional, organism-based.
Assay [5] relates to Schistosoma mansoni. Put plainly: High throughput screening of compounds against Schistosoma mansoni motility. In kind it is functional. Also on record: dose or concentration left out as unconfirmed.
Assay [6] can be described thus: microbe, parasite or virus in culture. The conditions noted are these: Mycobacterium tuberculosis, 96 h, read-out: pIC50 (converted).
Assay [7] can be described thus: microbe, parasite or virus in culture. The conditions noted are these: Mycobacterium tuberculosis, 72 h, read-out: pIC50 (converted).
Assay [8] has as its target ClpP1P2 (Mycobacterium tuberculosis (strain ATCC 25618 / H37Rv), UniProt P9WPC3+P9WPC5). Nature of the assay: in vitro assay to detect presence of AMC directly proportional to the activity of ClpP1P2. GHDDI collaboration. The assay is classed as functional.
Assay [9] deals with Tryptophan--tRNA ligase (Mycobacterium tuberculosis (strain ATCC 25618 / H37Rv), UniProt P9WFT3). Nature of the assay: Biochemical assay for Mt-TrpRS. The assay is classed as functional.

“And” between values parts separate entries of the source, which are not always exact repeats. Equal values may be shown once. Some results are limits rather than exact numbers.

Take `Cc1nccn1CCCn1cncc1-c1ccc2c(c1)CC(C)N2C` (stereo unspecified): the IC50 was over 50.1 µM in assay [1]; 20.5 µM and 22.8 µM in [2].
Regarding `CCN(CC)CCNC(=O)c1ccc(-n2ccc3ccccc32)s1`, the IC50 was 11.2 µM in [1] and 7.53 µM in assay [3].
Consider `Clc1ccccc1C1(c2ccnc(CC3CC3)n2)CCNCC1`, for which, in [1], the pIC50 was 4.801 and 4.355. Further, in assay [4], the pIC50 is 6.68 and the IC50 is 0.268 µM.
Consider `Nc1nccc(N2CCC(c3cc(Cc4ccccc4)n[nH]3)CC2)n1`, for which the pIC50 was determined as 4.363 in [1] and 4.837 in [3]. In addition, the IC50 in assay [1] was 42 µM; in assay [3], 20.2 µM.
In [1], `Cc1cc(N2CCCCCC2)n2nc(C)c(C)c2n1` showed an IC50 of over 50.1 µM. For the same compound, the “Percent Effect” value in [5] is on record as -21.59%.
For the compound `C1Cc2nc(CCNc3nc(C4CC4)nc4c3CCNCC4)sc2C1`, in [1], the pIC50 is 5.261 and 5.322; the IC50 is 5.69 µM. In assay [3], this compound gave an IC50 of 12.6 µM.
As to `c1ccc(C2=NOC3(CCN(Cc4c[nH]c5ccccc45)CC3)C2)cc1`, in assay [1], the pIC50 was found to be 4.869 and the IC50 was 18.3 µM. In [3], this compound gave a pIC50 of 5.08 and an IC50 of 6.84 µM.
For the compound `Cc1cccc(CNC(CN2CCN(C)CC2)c2ccccc2)c1` (stereo unspecified), in assay [1], the pIC50 was determined as 5.046 and the IC50 is 6.36 µM. For the same compound, in assay [4], the pIC50 is reported as 6.605 and the IC50 is 0.185 µM.
On to `Cc1cc2nc(-c3cn(C4CCNCC4)nn3)[nH]c2cc1C`, for which, in [1], the pIC50 is recorded as 4.64 and the IC50 is 21.2 µM. Moreover, in [4], the pIC50 is given as 6.549 and the IC50 is 0.273 µM.
On to `O=C(NCCCN1CCCCC1)c1ccc(-n2ccc3ccccc32)s1`, for which the pIC50 in assay [1] came out at 5.277. The IC50 in assay [1] was 7.13 µM; in assay [3], 6.04 µM; in assay [6], over 50.1 µM; in [7], 28.1 µM.
For `Cc1nc(CCN)cc(N2CCC(O)(c3ccc(Cl)cc3)CC2)n1`, the IC50 in assay [1] is over 50.1 µM; in assay [2] it was 46.4 µM and 42.8 µM.
As to `COc1cccc(CNC(CN2CCN(C)CC2)c2ccccc2)c1` (stereo unspecified), in [1], the pIC50 is on record as 4.672 and the IC50 was 22 µM. In assay [4], this compound gave a pIC50 of 6.596 and an IC50 of 0.308 µM.
In assay [1], `Cc1ccc(CNC(CN2CCN(C)CC2)c2ccccc2)cc1` (stereo unspecified) gave a pIC50 of 5.055 and an IC50 of 12.8 µM. In addition, in assay [4], the pIC50 is 6.589 and the IC50 was 0.247 µM.
In assay [1], `Cc1c(C(=O)N2CCC(N3CCCCC3)CC2)n(C)c2ccc(Cl)cc12` showed a pIC50 of 4.818 and an IC50 of 13.5 µM. In [4], this compound had a pIC50 of 6.009 and an IC50 of 1.07 µM.
In assay [1], `CC(C)CNc1nc2c(cc1C(=O)NCC1CC1)CCNCC2` gave a pIC50 of 4.725 and an IC50 of 17.7 µM. Besides, in [8], the IC50 is over 100 µM.
As to `CCN(CCN(C)C)c1nc(CCN)nc2sc(C)c(C)c12`, the IC50 in assay [1] was over 50.1 µM; in [2], 49.3 µM and 36.3 µM; in [4], 1.21 µM. This compound also gave a pIC50 in [4] of 5.974.
On to `CCSc1cc(C(=O)NCc2ccccc2O)ccn1`, for which the IC50 in assay [1] was over 50.1 µM. Moreover, the “Percent Effect” value in assay [5] is -44.04%.
Compound `Cc1cc(N2CCC(N(C)C(=O)c3ccccc3)CC2)nc(C)n1` had an IC50 in [1] of over 50.1 µM. Besides, in [5], the “Percent Effect” value is -7.781%.
Regarding `CN1CCN(CC(NCc2ccc(F)c(F)c2)c2ccccc2)CC1` (stereo unspecified), the IC50 was 11.3 µM in [1], 0.618 µM in assay [4], over 50.1 µM in assay [6] and 17.1 µM in assay [7]. This compound also gave a pIC50 in assay [4] of 6.278.
Take `CCOc1c(Cl)cc(Cl)cc1CNCCCn1ccnc1`: the IC50 in [1] was 16 µM; in [2] it was over 100 µM.
In [1], `O=C(C1CNCCO1)N1CCCC(c2ccccc2)(c2ccccc2)C1` (stereo unspecified) had a negative-log IC50 (pIC50) of 4.781 and an IC50 of 11.6 µM. In assay [4], this compound showed a pIC50 of 6.124 and an IC50 of 0.975 µM.
With `CCOC(=O)N1CCN(c2nc(CCN)nc3sc(C)c(C)c23)CC1`, the IC50 in assay [1] is over 50.1 µM; in assay [2], 21.8 µM and 19.6 µM; in assay [4], 1.12 µM. In assay [4], this compound had a pIC50 of 5.898.
Regarding `Clc1ccccc1C1(c2ccnc(C3CCCC3)n2)CCNCC1`, the IC50 was 6.68 µM in [1], 13 µM in assay [3] and 0.399 µM in assay [4]. The pIC50 in assay [3] came to 5.147; in assay [4], 6.419.
On to `N[C@@H]1CCC[C@@H](Oc2ccc(F)cc2Oc2cccc(F)c2)[C@@H]1O`, for which the results for the IC50 in assay [1] and in [9] were over 50.1 µM and over 195 µM, respectively.
Consider `COc1ccc(C2=Nn3c(CCN)nnc3-c3ccccc3C2)cc1`, for which the pIC50 in assay [1] turned out to be 4.676. The IC50 in assay [1] is 17.9 µM; in assay [2], over 100 µM.
With `Cc1ccc(-c2nc(CNC(C)CCO)[nH]c2-c2ccccn2)cc1` (stereo unspecified), the pIC50 in assay [1] was 4.821 and 4.459. In assay [4], this compound gave a pIC50 of 5.824 and an IC50 of 1.25 µM.
Turning to `N[C@@H]1CCC[C@@H](Oc2ccc(F)cc2Oc2ccccc2)[C@@H]1O`, the values for the pIC50 in assay [1] and in [4] were 4.886 and 6.155, respectively. Besides, the IC50 was 11.2 µM in assay [1], over 195 µM in [9] and 0.602 µM in assay [4].
In assay [1], `Clc1ccccc1C1(c2ccnc(-c3ccncc3)n2)CCNCC1` gave a pIC50 of 4.623 and an IC50 of 18.6 µM. For the same compound, in assay [4], the pIC50 is reported as 6.636 and the IC50 is 0.264 µM.
In the same order, the values of `CC(O)CN1CCC(CNCc2ccc(OC(F)(F)F)cc2)CC1` (stereo unspecified) are 5.001, 9.27 µM, 5.989 and 0.959 µM.
`CN(C)S(=O)(=O)c1ccc(-c2nc(C#N)c(NC3CCCCC3)o2)o1`: the results for the IC50 in [1] and in [8] were over 50.1 µM and over 100 µM, respectively.
In assay [1], `Cc1ccc(-c2cc(CNc3ncnc4c3CCNCC4)no2)cc1` had a pIC50 of 4.865 and an IC50 of 8.55 µM. The IC50 in assay [3] was 9.58 µM.
Take `Clc1ccccc1C1(c2ccnc(C3CC3)n2)CCNCC1`: the IC50 in [1] is 23.9 µM; in [3], 15.4 µM; in [4], 0.536 µM. Further, the pIC50 is given as 4.703 in assay [3] and 6.224 in assay [4].
On to `CC(C)(C)c1nccc(C2(c3ccccc3Cl)CCNCC2)n1`, for which the values for the IC50 in assay [1] and in [4] were 7.19 µM and 0.667 µM, respectively. Also, the pIC50 in assay [3] is 4.939 and 5.272; in assay [4] it was 6.385.
Turning to `Cc1nc(CCN)cc(N2CCOc3ccc(Cl)cc3C2)n1`, in [1], the negative-log IC50 (pIC50) turned out to be 4.773 and the IC50 was 11.2 µM. Moreover, the IC50 in assay [2] is 41.7 µM and 34.2 µM.

A word on the pIC50: it is the IC50 on a negative log10 scale, so that one unit is a factor of ten.

Source of the values: ChEMBL document CHEMBL3988442, “University of Dundee, Small-Polar-MMV Screening Library” (2021).
